Data set [1] relates to statin-treated patients with established atherosclerosis or diabetes and elevated triglycerides. In words: REDUCE-IT: total (first and recurrent) ischemic events analysis. It counts as in vivo, human. From the text:
The following study was a multi-center, placebo-controlled clinical trial the details of which are described above in Example 1, the REDUCE-IT design. […] Randomization was stratified by cardiovascular risk cohort (i.e., secondary or primary prevention), use of ezetimibe, and by geographic region.
The primary outcome for the study was total recurrent events consisting of the composite of cardiovascular death, nonfatal myocardial infarction, nonfatal stroke, coronary revascularization, or hospitalization for unstable angina. Recurrent event analyses were also performed for the key secondary endpoint, a composite of cardiovascular death, nonfatal myocardial infarction, or nonfatal stroke. For each of these composite endpoints, the effects of icosapent ethyl in the secondary and primary prevention strata were examined separately.
Demographic and baseline disease characteristics are presented using frequencies and percentages for categorical variables and medians with interquartile ranges for continuous variables. Between treatment group comparisons were derived using the chi-square test for categorical variables and Wilcoxon rank test for continuous variables. All clinical endpoint events used in the efficacy analyses were adjudicated by an independent Clinical Endpoint Committee (CEC) who were blinded to the treatment assignment. Since the primary efficacy endpoint was the time from randomization to the first occurrence of any component of the composite endpoint, and recurrence of such events within each patient is possible, a pre-specified analysis using a Cox proportional-hazard with the counting-process formulation of Andersen and Gill was performed to model the first and all recurrent cardiovascular events. HRs and corresponding 95% CIs are reported from this model. In addition, as a marginal model and an extension of survival models based on the Cox proportional hazard model, the modified Wei-Lin-Weissfeld (WLW) method for analysis of recurrent events in the presence of deaths was carried out as a supportive analysis. In addition, as pre-specified, a recurrent event analysis using the Andersen-Gill and Wei-Lin-Weissfeld methods was carried out for the individual primary event components other than CV death. Though not pre-specified, additional recurrent event analyses were performed for the key secondary endpoint, which is a composite of CV death, nonfatal MI, or nonfatal stroke, and for the primary endpoint and the key secondary endpoint in the primary and secondary prevention strata to explore further the consistency of clinical benefit of icosapent ethyl. In subgroup analyses of the two cardiovascular risk strata (i.e., primary and secondary prevention), site-level discrepancies in cardiovascular risk group assignment occurring at entry and detected during the study (1.8%) were adjusted to conform with documented medical history data prior to randomization. All efficacy analyses were performed according to the intention-to-treat principle. All tests were based on a 2-sided nominal significance level of 5% with no adjustments for multiple comparisons.

For data set [2], the system named is symptomatic COVID-19 outpatients with positive SARS-CoV-2 test. In words: VASCEPA-COVID-19: adverse events. It counts as in vivo, human. The text has this:
Safety monitoring was undertaken at each study visit in accordance with Health Canada regulations and local reporting guidelines. All serious, unexpected adverse drug reactions (ADRs) were reported to Health Canada in accordance with Division 5 of Part C of the Food and Drug Regulations.
An adverse event (AE) is defined as any untoward medical occurrence, including an exacerbation of a pre-existing condition, in a patient in a clinical investigation who received a pharmaceutical product.
The intensity of the AE should be judged based on the following: • a) Mild: Awareness of sign(s) or symptom(s) that is/are easily tolerated; • b) Moderate: Sufficient discomfort to cause interference with usual activity; or • c) Severe: Incapacitating or causing inability to work or to perform usual activities.

The mark [3] stands for this setting: n = 50, intention-to-treat, usual care 0.
Where [4] appears, read: n = 50, intention-to-treat, usual care 6.

With `CC/C=C\C/C=C\C/C=C\C/C=C\C/C=C\CCCC(=O)OCC` [icosapent ethyl, eicosapentaenoic acid ethyl ester], the “Total primary endpoint events: HR vs placebo” value in data set [1] (overall trial) stood at 0.68. Besides, the “Total primary endpoint events prevented” value in data set [1] (per 100 patients treated for five years) is given as “approximately 16”. Further, in data set [1] (primary prevention stratum, vs placebo), the “Total key secondary endpoint: HR” value is recorded as 0.71. Besides, the “Total key secondary endpoint: HR” value in data set [1] (secondary prevention stratum, vs placebo) was 0.70. Moreover, in data set [1] (vs placebo), the “First events reduced by” value was 25%, the “Second events reduced by” value amounted to 28%, the “Third or more events reduced by” value is listed as 50% and the “Total events for the primary composite efficacy outcome: relative risk reduction” value is recorded as 32%. The “Discontinuations with the 8 g per day loading dose” value in data set [2] (VASCEPA-COVID-19) is listed as “no discontinuations”. For the same compound, the Tolerability entry in data set [2] (VASCEPA-COVID-19, 14 days) is on record as “well tolerated”. In addition, the “Serious AEs or deaths” value in data set [2] (VASCEPA-COVID-19 trial population) is listed as “No serious AEs or deaths occurred”. For the same compound, in data set [2] (setting [3]), the “Mild adverse events: Gastrointestinal disorders, %” value turned out to be 8% and the “Moderate adverse events: Gastrointestinal disorders, %” value was 2%. Moreover, in data set [2] (setting [4]), the “Moderate adverse events: Respiratory disorders, %” value is recorded as 2% and the “Total adverse events, %” value was 12%.

(Values after patent US20210308089A1, “METHODS OF TREATING AND/OR PREVENTING VIRAL INFECTIONS AND/OR DISEASES CAUSED BY VIRUSES IN A SUBJECT IN NEED THEREOF” (priority 2020, published 2021).)
